# Measurements published in article PMC7849180 (Frontiers in Pharmacology, 2020).
# Key:
# [1] = PK, single intravenous dose; format: in vivo, beagles; details: 12.2 mg ZG0128 (1.22 mg/kg)
# Experimental: Suzhou Zelgen Biopharmaceuticals Co., Ltd. Jaktinib Hydrochloride Tablets Chemical Drug Class 1 New Drug
# Pharmacokinetics of single dose intravenous administration in beagles.
# After intravenous administration of 12.2 mg ZG0128 (the average weight of the beagles was about 10 kg, so the dose given equals to 1.22 mg/kg ZG0128), ZG0163 […]
# AUC0-t was 70.1% of that of the original drug.
# Pharmacokinetics of single-dose intragastric administration.
# The average Tmax of ZG0163 was 2.0 h after a single-dose intragastric administration of 1, 2, and 4 ZG0128 tablets (corresponding to 61, 122, and 244 […]
# mg/ZG0128). […] The plasma […]
# exposure AUC0-t was 459, 948, and 1728 ng•h/mL (mean) and the average plasma […]
# There were large individual differences in plasma exposure AUC0-t in dogs. The pharmacokinetic differences between genders could not be determined. Within the range of 61-244 mg, the AUC0-t of ZG0163 increased proportionally with the increasing dosage. The average Tmax of metabolite ZG0245 was 2.0 h. The plasma exposure of metabolite ZG0245 was roughly 2.16 times
# [2] = Treatment-related AEs (NCI CTCAE), MAD cohorts; format: in vivo, human
# Experimental: (§1) MAD study was conducted after evaluating the tolerance of the single dose 100 mg cohort. In MAD part, volunteers were designed into five cohorts (100 mg q24h, 150 mg q24h, 100 mg q12h, 200 mg q24h, 150 mg q12h). […] The MAD part was initiated after the safety and tolerance evaluation from SAD 100 mg cohorts. Progression to higher MAD doses was allowed after review the safety data of the prior MAD cohorts.
# Dose-limiting toxicities (DLTs) were defined according to the NCI CTCAE v.4.03 as any occurrence of the following drug-related adverse events (AEs): more than one third of volunteers suffered Grade ≥4 drug-related hematological toxicities or Grade ≥3 drug-related nonhematological toxicities; one drug-related serious adverse events (SAEs).
# [3] = Plasma pharmacokinetics, multiple ascending dose (MAD), 10 days; format: in vivo, human
# Experimental: as §1
# (§2) For MAD cohorts, blood samples were collected at 0, 0.25, 0.5, 1, 1.5, 2, 3, 4, 5, 6, 8 and 12 h on day 1; 0 h on day 2, 3, 4, 6 and 7; 0, 0.25, 0.5, 1, 1.5, 2, 3, 4, 5, 6, 8, 12, 24, 36 and 48 h on day 10. In food effect cohort, blood samples were collected at 0, 0.25, 0.5, 1, 1.5, 2, 3, 4, 5, 6, 8, 12, 24, 36, 48, 72, 96 and 120 h in period one of group A; 0, 0.25, 0.5, 1, 1.5, 2, 3, 4, 5, 6, 8, 12, 24, 36 and 48 h in period two of group A and the two periods of group B. Blood samples were centrifuged at 3,000 rpm for 10 min at 2–8 °C and stored at -80 °C until liquid chromatography-mass spectrophotometry (LC-MS/MS) analysis. Urine and feces samples were collected in period one of group A of food effect cohort with the intervals 0, 0–6, 6–12, 12–24, 24–48, 48–72, 72–96, 96–120 and 0–120 h, respectively. […]
# [4] = in vivo
# Experimental: Food effect part was a two-period crossover study and conducted after finishing both SAD and MAD parts. […] For group A, the urine and feces samples for pharmacokinetic (PK) analysis were collected in the first period.
# Safety was assessed according to the NCI CTCAE version 4.03, including AEs of changes in vital signs, 12-lead ECGs, abdominal ultrasound, chest X-ray, physical examination and clinical laboratory tests. Abdominal ultrasound and chest X-ray were only performed at screening. 12-lead ECGs, physical examination and clinical laboratory tests were conducted in screening and day 3 after administration in SAD cohorts; days 4, 7 and 12 in MAD cohorts; day 8 in food effect cohort. Vital signs were measured at screening and admission, 0 h (pre-dose) and 2, 6, 24, 48 h after administration in SAD cohorts; 0, 2, 6 h on day 1, 0 h on days 2, 3, 4, 7, 0, 2, 6, 24, 48 h after the last dose in MAD cohorts; 0, 2, 6, 24, 48, 72, 120 h in period 1 and 2, 6, 24, 48 h in period two in food effect cohort.
# [5] = Food effect on plasma pharmacokinetics, 200 mg crossover; format: in vivo, human; details: for AUC0-t, geometric mean / AUC0-∞, geometric mean / Cmax, geometric mean / median Tmax: 200 mg
# Experimental: as §2
# Statistical analysis was performed using SAS software, version 9.4 (SAS Institute Inc., United States). Descriptive statistics were used to summarize continuous variables as cases, means with standard deviations, medians, maximum and minimum. For categorical variables, frequencies and percentages were used. A regression power model, relating log-transformed Cmax and AUC parameters to log-transformed dose, was used to investigate dose proportionality. Food effect pharmacokinetic parameters were analyzed using the mixed effect model with period, sequence and treatment as fixed effects and subjects as the random effect. Logarithmic transformation of Cmax, AUC0-∞ and AUClast were performed to calculate the 90% confidence intervals (CIs) of the geometric mean ratio (GMR) between fasting and fed administration. If the calculated 90% CI values fall entirely within the range of 0.80–1.25, it is indicative of no significant food effect.
substance,measurement,setting,value
Jaktinib,plasma clearance CL,[1],49.3 mL/min/kg
same,volume of distribution Vss,[1],3.49 L/kg
same,diarrhea incidence,[2]; MAD jaktinib group,22.5%
same,dizziness incidence,[2]; MAD jaktinib group,17.5%
same,leukopenia incidence,[2]; MAD jaktinib group,12.5%
same,volunteers with treatment-related AEs,[2]; all MAD cohorts,74.0%
same,"deaths, SAEs and Grade ≥4 AEs","[2]; all cohorts (SAD, MAD, food effect)","No deaths, SAEs and Grade ≥4 AEs were reported"
same,Neutropenia incidence,[2]; in vivo,27.5%
same,maximally tolerated dose,"[2]; multiple dose, q24 h",200 mg
same,accumulation factor Rac (90% CI),[3]; 100 mg q12h,1.24
same,"Cmax, geometric mean (CV%)","[3]; 100 mg q12h, Day 1",204.68 (36.2) ng/ml
same,"Tmax, median (min–max)","[3]; 100 mg q12h, Day 1",1.50 (0.50–4.00) h
same,"Cmax, geometric mean (CV%)","[3]; 100 mg q12h, Day 10",226.87 (33.2) ng/ml
same,"Cmin,ss, geometric mean (CV%)","[3]; 100 mg q12h, Day 10",27.565 (96.3) ng/ml
same,"Fluctuation, geometric mean (CV%)","[3]; 100 mg q12h, Day 10",204.463 (31.3) %
same,"Tmax, median (min–max)","[3]; 100 mg q12h, Day 10",3.00 (0.50–4.00) h
same,accumulation factor Rac (90% CI),[3]; 100 mg q24h,0.98
same,"Cmax, geometric mean (CV%)","[3]; 100 mg q24h, Day 1",182.68 (73.4) ng/ml
same,"Tmax, median (min–max)","[3]; 100 mg q24h, Day 1",2.00 (1.00–4.00) h
same,"Cmax, geometric mean (CV%)","[3]; 100 mg q24h, Day 10",150.84 (76.7) ng/ml
same,"Cmin,ss, geometric mean (CV%)","[3]; 100 mg q24h, Day 10",8.217 (169.4) ng/ml
same,"Fluctuation, geometric mean (CV%)","[3]; 100 mg q24h, Day 10",290.146 (45.7) %
same,"Tmax, median (min–max)","[3]; 100 mg q24h, Day 10",1.50 (1.00–4.00) h
same,accumulation factor Rac (90% CI),[3]; 150 mg q12h,1.38
same,"Cmax, geometric mean (CV%)","[3]; 150 mg q12h, Day 1",295.08 (52.6) ng/ml
same,"Tmax, median (min–max)","[3]; 150 mg q12h, Day 1",2.00 (1.00–4.00) h
same,"Cmax, geometric mean (CV%)","[3]; 150 mg q12h, Day 10",470.78 (38.2) ng/ml
same,"Cmin,ss, geometric mean (CV%)","[3]; 150 mg q12h, Day 10",26.868 (39.2) ng/ml
same,"Fluctuation, geometric mean (CV%)","[3]; 150 mg q12h, Day 10",274.265 (17.3) %
same,"Tmax, median (min–max)","[3]; 150 mg q12h, Day 10",1.25 (0.50–2.00) h
same,accumulation factor Rac (90% CI),[3]; 150 mg q24h,1.16
same,"Cmax, geometric mean (CV%)","[3]; 150 mg q24h, Day 1",236.94 (88.6) ng/ml
same,"Tmax, median (min–max)","[3]; 150 mg q24h, Day 1",3.00 (1.00–6.00) h
same,"Cmax, geometric mean (CV%)","[3]; 150 mg q24h, Day 10",250.23 (70.3) ng/ml
same,"Cmin,ss, geometric mean (CV%)","[3]; 150 mg q24h, Day 10",14.342 (71.1) ng/ml
same,"Fluctuation, geometric mean (CV%)","[3]; 150 mg q24h, Day 10",281.461 (29.1) %
same,"Tmax, median (min–max)","[3]; 150 mg q24h, Day 10",2.50 (1.00–5.00) h
same,accumulation factor Rac (90% CI),[3]; 200 mg q24h,0.94
same,"Cmax, geometric mean (CV%)","[3]; 200 mg q24h, Day 1",327.37 (36.6) ng/ml
same,"Tmax, median (min–max)","[3]; 200 mg q24h, Day 1",2.50 (1.50–4.00) h
same,"Cmax, geometric mean (CV%)","[3]; 200 mg q24h, Day 10",296.88 (58.3) ng/ml
same,"Cmin,ss, geometric mean (CV%)","[3]; 200 mg q24h, Day 10",10.798 (125.4) ng/ml
same,"Fluctuation, geometric mean (CV%)","[3]; 200 mg q24h, Day 10",390.098 (38.5) %
same,"Tmax, median (min–max)","[3]; 200 mg q24h, Day 10",3.00 (1.50–4.00) h
same,time to steady state,"[3]; continuous administration, trough concentrations",approximately 4 days
same,treatment-related Grade 4–5 AEs,[4],Note: No treatment-related Grade 4–5 AEs observed in food effect cohorts.
same,"Cmax, geometric mean (CV%)",[5]; 200 mg fasted,237.98 (69.0) ng/ml
same,"Tmax, median (min–max)",[5]; 200 mg fasted,2.00 (0.50–5.00) h
same,"Cmax, geometric mean (CV%)",[5]; 200 mg fed,542.35 (32.1) ng/ml
same,"Tmax, median (min–max)",[5]; 200 mg fed,4.00 (3.00–5.00) h
same,"AUC0-t, geometric mean",[5]; fasted (n = 12),1569.48 ng·h/mL
same,"AUC0-∞, geometric mean",[5]; fasted (n = 12),1616.35 ng·h/mL
same,"Cmax, geometric mean",[5]; fasted (n = 12),237.98 ng/mL
same,median Tmax,[5]; fasted state,2 h
same,"AUC0-t, geometric mean",[5]; fed (n = 12),4174.9 ng·h/mL
same,"AUC0-∞, geometric mean",[5]; fed (n = 12),4207.38 ng·h/mL
same,"Cmax, geometric mean",[5]; fed (n = 12),542.35 ng/mL
same,median Tmax,[5]; fed state,4 h
same,"AUC0-t, geometric mean ratio",[5]; fed vs fasted,2.66
same,"AUC0-∞, geometric mean ratio",[5]; fed vs fasted,2.60
same,"Cmax, geometric mean ratio",[5]; fed vs fasted,2.28
